Test results as given in patent US20220160908A1, “CHELATORS AND METHODS OF MAKING AND USING SAME” (The University Of British Columbia, priority 2019, published 2022).
Where two headings read alike, the source gives them in different places.

Assays:
[1] = cited from earlier work
[2] = Protonation constants by combined potentiometric-spectrophotometric titrations; type: physicochemical; conditions: 25° C., l = […] (NaCl)
Source text: The basicity of different ionizable and non-ionizable protons determine the extent of the competition between the metal ion and the protons to the binding sites of the chelator during metal complexation. Therefore, protonation constants must be considered when evaluating the chelator. […] The remaining four protonation constants were not determined as these sites deprotonated at a pH below the electrode threshold. As a result but without being bound by theory, during metal complexation which preferably occurs at or near physiological pH for pharmaceutical purposes, competition from those protonation processes would be negligible.
FIGS. 4A, 4B and 4C show the absorption bands of the species involved in the protonation equilibria mentioned above at different pH, while Table 2 presents the protonation constants calculated from the experimental data using the HypSpec2014^25 and Hyperquad2013^26 programs. The speciation plots of different species of H4py4pa in FIG. 4D were calculated from the protonation constants in Table 2 with Hyss software.^27
All potentiometric titrations were carried out with a Metrohm Titrando 809 and a Metrohm Dosino 800 with a Ross combined electrode. A 20 mL and 25° C. thermostated glass cell with an inlet-outlet tube for nitrogen gas (purified through a 10% NaOH solution to exclude any CO2 prior to and during the course of the titration) was used as a titration cell. The electrode was calibrated daily in hydrogen ion concentration by direct titration of HCl with freshly prepared NaOH solution and the results were analyzed with Gran procedure^29 in order to obtain the standard potential E° and the ionic product of water pKw at 25° C. and 0.16 M NaCl as a supporting electrolyte. Solutions were titrated with carbonate-free NaOH (0.16 M) that was standardized against freshly recrystallized potassium hydrogen phthalate.
In the study of complex formation equilibria, the determination of the stability constant of [La(H4py4pa)] species was carried out by two different methods. The first method used UV-Vis spectrophotometric measurements on a set of solutions containing 1:1 metal to ligand molar ratio ([H4py4pa]=[M]^3+˜1.33×10^−4 M) and different amounts of HCl in the spectral range 200-400 nm at 25° C. and 1 cm path length. The molar absorptivities of all the protonated species of H4py4pa calculated with HypSpec2014^25 from the protonation constant experiments were included in the calculations. […] The stability constants for the complexes formed by H4edta and La^3+ were taken from literature.^31 Direct pH-potentiometric titrations of the La^3+-H4py4pa system were also carried out. Metal solution was prepared by adding the atomic absorption (AA) standard metal ion solution to a H4py4pa solution of known concentration in the 1:1 metal to ligand molar ratio for La(III). Ligand and metal concentrations were in the range of 0.6-0.8×10^−4 M. The exact amount of acid present in the atomic standard metal solutions standards was determined by Gran's method^29 titrating equimolar solutions of La(III) and Na2H2-EDTA. […] Three replicates of each titration were performed for each system. Relying on the stability constant for the species La(Hpy4pa) obtained by the two different methods, the fitting of the direct potentiometric titrations was possible and yielding the stability constants in Table 3. All the potentiometric measurements were processed using the Hyperquad2013 software^26 while the obtained spectrophotometric data were processed with the HypSpec2014^25 program. Proton dissociation constants corresponding to hydrolysis of La(III) aqueous ion included in the calculations were taken from Baes and Mesmer.^32 The overall equilibrium (formation) constants log β referred to the overall equilibria: pM+qH+rL ⇄MpHqLr (the charges are omitted), where p might also be 0 in the case of protonation equilibria and q can be negative for hydroxide species. […]

[3] = Complex formation equilibria with La(III): stability constants and pM; type: physicochemical
[4] = ligand-ligand potentiometric competition with EDTA at l = […] (NaCl) and 25° C.
[5] = potentiometric titrations at l = […] (NaCl) and 25° C.

For `O=C(O)c1cccc(CN2CCOCCOCCN(Cc3cccc(C(=O)O)n3)CCOCCOCC2)n1` [Compound H2macropa, N,N′-bis[(6-carboxy-2-pyridil)methyl]-4,13-diaza-18-crown-6], which “log K[La(macropa)]” value ([1]; 25° C., l=0.1 M (KCl)) is on record?
The value was 14.99.

With `O=C(O)c1cccc(CN(Cc2cccc(CN(Cc3cccc(C(=O)O)n3)Cc3cccc(C(=O)O)n3)n2)Cc2cccc(C(=O)O)n2)n1` [Compound H4py4pa] as the compound, how does the “log K, H2L^2− + H^+ ⇌ H3L^− (pK9)” value [2] read?
The value was 4.06 (2).

And the “log K, H3L^− + H+ ⇌ H4L (pK8)” value [2]?
The value was 3.58 (2).

And the “log K, H4L + H^+ ⇌ H5L^+ (pK7)” value [2]?
The value was 2.71 (3).

What about the “log K, H5L^+ + H^+ ⇌ H6L^2+ (pK6)” value [2] of the same compound?
Its value is 2.55 (4).

And the “log K, H6L^2+ + H^+ ⇌ H7L^3+ (pK5)” value [2]?
Its value is 2.31 (4).

And the “log K, HL^3− + H^+ ⇌ H2L^2− (pK10)” value [2]?
The value was 6.07 (1).

And the “log K, L^4− + H^+ ⇌ HL^3− (pK11)” value [2]?
The value was 6.96 (1).

What about the “log β, H2L^2− + H^+ ⇌ H3L^−” value [2] of the same compound?
The value was 17.09 (2).

And the “log β, H3L^− + H+ ⇌ H4L” value [2]?
Its value is 20.67 (2).

And the “log β, H4L + H^+ ⇌ H5L^+” value [2]?
The value was 23.38 (3).

And the “log β, H5L^+ + H^+ ⇌ H6L^2+” value [2]?
Its value is 25.93 (4).

And the “log β, H6L^2+ + H^+ ⇌ H7L^3+” value [2]?
Its value is 28.24 (4).

What about the “log β, HL^3− + H^+ ⇌ H2L^2−” value [2] of the same compound?
Its value is 13.03 (1).

And the “log β, L^4− + H^+ ⇌ HL^3−” value [2]?
Its value is 6.96 (1).

And the “pM (La^3+)” value ([3]; -log [M]free at [L] = 10 μM, [M] = 1 μM and pH = 7.4)?
The value was 21.0.

And the “log K, ML + H^+ ⇌ MHL” value ([3]; in-batch acidic spectrophotometric competition at 25° C., not evaluated at constant l)?
The value was 4.01(5).

And the “log K, M(OH)L + H^+ ⇌ ML” value [3, 4]?
Its value is 9.94(3).

What about the “log K, ML + H^+ ⇌ MHL” value [3, 4] of the same compound?
Its value is 3.78(4).

What about the “log K, M^3+ + L ⇌ ML” value [3, 4] of the same compound?
The value was 20.37(2).

What about the “log K, M(OH)L + H^+ ⇌ ML” value [3, 5] of the same compound?
Its value is 9.96(4).

What about the “log K, M^3+ + L ⇌ ML” value [3, 5] of the same compound?
Its value is 20.33(3).

Which results are given for `O=C(O)CN1CCN(CC(=O)O)CCN(CC(=O)O)CCN(CC(=O)O)CC1` [DOTA, 1,4,7,10-tetraazacyclododecane-1,4,7,10-tetraacetic acid]?
log K[La(DOTA)] ([1]; 25° C.): 24.25; pM (La^3+) ([1]; -log [M]free at [ligand]=10 μM, [M]=1 μM, pH=7.4): 19.2
